Laboratory results reported in paper PMC10518257 (Nature Cancer, 2023).
Values joined by “and” are separate entries in the source; they are usually repeats but may differ in a detail not shown here. Identical values can stand only once. Like-named read-outs stand apart in the source and are kept apart here.

What was measured:
[1] = Animal weight of tumor-bearing mice; settings: NIH-3T3-CCDC6::RET xenografts, 100 mg/kg QD, 100 mg/kg
LUAD-0086AS3 cells = experiment: Growth inhibition (alamarBlue, 96 h); type: cell-based, human; settings: for raw viability signal (Source Data Fig. 3b-c): LUAD-0086AS3 (n=1, 3 replicates)
[2] = test system: phosphorylation of RET^G810R, RET^G810S and RET^G810C in Ba/F3 cells; experiment: Western blotting of RET phosphorylation in Ba/F3 KIF5B–RET cells; type: cell-based; settings: 1 h, western blot, 100 nM
HBECp53-EV cells = experiment: Growth inhibition (alamarBlue, 96 h); type: cell-based, human; settings: for raw viability signal (Source Data Fig. 3b-c): HBEC-EV, replicate sets
MMNK1 cholangiocytes = experiment: Growth inhibition (alamarBlue, 96 h); type: cell-based, human; settings: MMNK, replicates
[3] = test system: Ba/F3 cells expressing KIF5B–RET^G810R; experiment: Growth inhibition assay in Ba/F3 cells (CellTiter-Glo, 72 h); type: cell-based; settings: Ba/3-KIF5B-RET-G810R; replicate Sets 1-3
LUAD-0087AS2 PDX = experiment: PDX efficacy study; settings: for Change in tumor volume (% from base line): Fig. 6a LUAD-0087AS2; for Change in tumor volume (% from base line) / Tumor volume: individual animals; for Area Under Curve Mean: Fig. 6a LUAD-0087AS2 tumor growth; for Tumor volume: LUAD-0087AS2
Ba/F3 cells = experiment: Growth inhibition assay in Ba/F3 cells (CellTiter-Glo, 72 h); type: cell-based; settings: Mus musculus
[4] = test system: Ba/F3 cells expressing KIF5B–RET^G810C; experiment: as above; type: cell-based; settings: Ba/3-KIF5B-RET-G810C; replicate Sets 1-3
[5] = test system: Ba/F3 cells expressing KIF5B–RET^V804L; experiment: as above; type: cell-based; settings: replicate sets
[6] = test system: LUAD-0002AS1 cells (KIF5B::RET); experiment: Dose-response western blotting, EC50 for inhibition of protein phosphorylation; type: cell-based; settings: Homo sapiens, LUAD-0002AS1, 2 h, densitometry
[7] = test system: Ba/F3 cells expressing KIF5B–RET^WT; experiment: Growth inhibition assay in Ba/F3 cells (CellTiter-Glo, 72 h); type: cell-based
[8] = biological target: panel of 255 (vepafestinib) or 256 (all other inhibitors) recombinant kinases; experiment: Kinase selectivity profiling at a single concentration (Carna Biosciences); type: biochemical; settings: 23 nM, panel of 255 recombinant kinases
[9] = biological target: T1, panel of 255 (vepafestinib) or 256 (all other inhibitors) recombinant kinases (Homo sapiens, UniProt P16234); experiment: as above; type: biochemical; settings: 23 nM
T1 construct: purchased Carna Biosciences
T1 sequence (P16234 24-1089): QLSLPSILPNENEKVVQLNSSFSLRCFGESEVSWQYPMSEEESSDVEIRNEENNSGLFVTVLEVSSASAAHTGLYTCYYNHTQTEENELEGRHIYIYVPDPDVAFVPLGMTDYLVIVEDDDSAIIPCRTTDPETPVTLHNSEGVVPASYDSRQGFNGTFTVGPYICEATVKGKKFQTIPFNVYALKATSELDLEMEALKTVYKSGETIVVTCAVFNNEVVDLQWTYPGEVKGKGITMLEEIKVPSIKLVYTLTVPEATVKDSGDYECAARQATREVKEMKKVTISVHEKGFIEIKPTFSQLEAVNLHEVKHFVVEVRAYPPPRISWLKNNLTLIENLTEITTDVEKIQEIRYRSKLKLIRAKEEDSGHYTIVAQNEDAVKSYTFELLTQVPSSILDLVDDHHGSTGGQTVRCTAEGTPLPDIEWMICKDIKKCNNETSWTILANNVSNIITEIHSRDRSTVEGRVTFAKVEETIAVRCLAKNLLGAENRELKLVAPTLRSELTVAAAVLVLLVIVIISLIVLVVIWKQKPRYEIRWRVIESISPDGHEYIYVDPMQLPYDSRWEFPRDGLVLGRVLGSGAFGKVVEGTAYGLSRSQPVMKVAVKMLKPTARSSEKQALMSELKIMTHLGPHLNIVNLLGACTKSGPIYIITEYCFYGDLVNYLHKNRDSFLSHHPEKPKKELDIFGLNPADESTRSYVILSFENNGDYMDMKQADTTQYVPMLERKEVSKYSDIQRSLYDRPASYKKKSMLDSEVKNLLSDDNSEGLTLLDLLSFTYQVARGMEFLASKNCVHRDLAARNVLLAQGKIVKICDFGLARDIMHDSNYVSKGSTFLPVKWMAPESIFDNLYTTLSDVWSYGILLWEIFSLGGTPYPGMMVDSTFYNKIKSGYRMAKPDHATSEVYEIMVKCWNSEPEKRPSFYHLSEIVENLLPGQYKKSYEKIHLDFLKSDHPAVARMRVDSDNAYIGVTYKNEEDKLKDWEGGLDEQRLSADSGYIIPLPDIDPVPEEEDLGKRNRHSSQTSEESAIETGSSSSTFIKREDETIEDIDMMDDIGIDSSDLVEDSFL

[10] = biological target: T2, panel of 255 (vepafestinib) or 256 (all other inhibitors) recombinant kinases (Homo sapiens, UniProt P35916); experiment: as above; type: biochemical; settings: 23 nM
T2 construct: purchased Carna Biosciences
T2 sequence (P35916 25-1363): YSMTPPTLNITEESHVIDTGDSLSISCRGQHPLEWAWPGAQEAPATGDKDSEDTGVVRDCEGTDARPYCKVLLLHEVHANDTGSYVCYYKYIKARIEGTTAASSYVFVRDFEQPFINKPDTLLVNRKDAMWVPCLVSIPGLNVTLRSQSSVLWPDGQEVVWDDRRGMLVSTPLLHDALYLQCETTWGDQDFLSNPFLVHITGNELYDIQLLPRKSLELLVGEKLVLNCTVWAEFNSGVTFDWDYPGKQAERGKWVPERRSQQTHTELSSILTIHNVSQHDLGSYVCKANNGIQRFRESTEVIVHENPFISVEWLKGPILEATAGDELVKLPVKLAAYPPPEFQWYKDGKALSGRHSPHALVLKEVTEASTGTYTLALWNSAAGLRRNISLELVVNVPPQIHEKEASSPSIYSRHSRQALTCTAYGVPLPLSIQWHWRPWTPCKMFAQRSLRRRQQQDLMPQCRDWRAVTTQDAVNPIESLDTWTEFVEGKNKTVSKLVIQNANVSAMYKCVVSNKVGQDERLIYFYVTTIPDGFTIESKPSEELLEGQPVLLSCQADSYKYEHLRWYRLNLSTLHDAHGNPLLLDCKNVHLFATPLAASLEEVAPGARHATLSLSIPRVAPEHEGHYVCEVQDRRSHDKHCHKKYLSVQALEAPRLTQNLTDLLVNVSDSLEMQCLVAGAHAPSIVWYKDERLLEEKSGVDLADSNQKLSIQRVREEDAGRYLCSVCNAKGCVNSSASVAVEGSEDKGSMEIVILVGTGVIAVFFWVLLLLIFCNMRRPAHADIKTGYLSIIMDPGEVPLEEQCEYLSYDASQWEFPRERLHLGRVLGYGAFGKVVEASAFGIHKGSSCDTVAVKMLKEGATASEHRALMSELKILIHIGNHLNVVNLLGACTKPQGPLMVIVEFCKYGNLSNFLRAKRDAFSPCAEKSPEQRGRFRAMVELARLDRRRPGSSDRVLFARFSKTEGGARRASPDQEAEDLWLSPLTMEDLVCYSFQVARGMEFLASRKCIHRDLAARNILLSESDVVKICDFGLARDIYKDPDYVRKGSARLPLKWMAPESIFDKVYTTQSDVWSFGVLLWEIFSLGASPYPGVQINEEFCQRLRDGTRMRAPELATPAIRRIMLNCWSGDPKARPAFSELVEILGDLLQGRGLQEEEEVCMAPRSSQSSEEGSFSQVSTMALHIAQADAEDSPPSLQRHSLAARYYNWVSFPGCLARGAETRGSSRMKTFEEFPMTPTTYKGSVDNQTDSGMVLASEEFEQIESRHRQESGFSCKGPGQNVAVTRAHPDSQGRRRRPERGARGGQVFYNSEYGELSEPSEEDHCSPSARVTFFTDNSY

[11] = Transcellular transport study, apparent permeability; settings: pig, LLC-PK1
[12] = Homo sapiens, 96 h, read-out: IC50 for Inhibition of Growth (95% CI)

COCc1ccc(NC(=O)c2c(C#CCN3CCOCC3)n(C3(C)CC3)c3ncnc(N)c23)cc1 [Vepafestinib, 4-amino-N-[4-(methoxymethyl)phenyl]-7-(1-methylcyclopropyl)-6-[3-(morpholin-4-yl)prop-1-yn-1-yl]-7H-pyrrolo[2,3-d]pyrimidine-5-carboxamide]
Animal Weight ([1]; day 2): 23 g and 22 g and 19 g
Animal Weight ([1]; day 5): 23 g and 22 g and 24 g and 21 g
Animal Weight ([1]; day 8): 23 g and 22 g and 24 g and 21 g
IC50 (LUAD-0086AS3 cells; [12]): 116 nM
raw viability signal (Source Data Fig. 3b-c) (LUAD-0086AS3 cells; 0.01 nM): 16237.2 and 19485.2 and 18210.6
raw viability signal (Source Data Fig. 3b-c) (LUAD-0086AS3 cells; 0.1 nM): 16457.6 and 20449.8 and 20222
raw viability signal (Source Data Fig. 3b-c) (LUAD-0086AS3 cells; 1 nM): 16743.2 and 19056.2 and 19367.3
raw viability signal (Source Data Fig. 3b-c) (LUAD-0086AS3 cells; 10 nM): 12680.1 and 18071 and 16933
raw viability signal (Source Data Fig. 3b-c) (LUAD-0086AS3 cells; 100 nM): 5830.14 and 9884.36 and 9286.4
raw viability signal (Source Data Fig. 3b-c) (LUAD-0086AS3 cells; 1000 nM): 6803.13 and 8603.1 and 8594.97
raw viability signal (Source Data Fig. 3b-c) (LUAD-0086AS3 cells; 10000 nM): 3602.32 and 4605.44 and 4993.57
suppression of phosphorylation of RET^G810R, RET^G810S and RET^G810C [2]: near-complete inhibition
raw viability signal (Source Data Fig. 3b-c) (HBECp53-EV cells; 0.01 nM): 27037 and 29740.2
raw viability signal (Source Data Fig. 3b-c) (HBECp53-EV cells; 0.1 nM): 19425.3 (2×) and 27020.1 and 29597.7
raw viability signal (Source Data Fig. 3b-c) (HBECp53-EV cells; 1 nM): 18975.7 (2×) and 23808.3 and 29292.2
raw viability signal (Source Data Fig. 3b-c) (HBECp53-EV cells; 10 nM): 19412.6 (2×) and 25517.4 and 26617.3
raw viability signal (Source Data Fig. 3b-c) (HBECp53-EV cells; 100 nM): 19354.5 (2×) and 27120.8 and 27640.4
raw viability signal (Source Data Fig. 3b-c) (HBECp53-EV cells; 1000 nM): 20047.9 (2×) and 18738.8 and 27632.3
raw viability signal (Source Data Fig. 3b-c) (HBECp53-EV cells; 10000 nM): 7853.82 (2×) and 1053.31 and 23430.8
IC50 (HBECp53-EV cells; [12]): 7900 nM
raw viability signal (Source Data Fig. 3b-c) (MMNK1 cholangiocytes; 0.01 nM): 15390 and 15865.6
raw viability signal (Source Data Fig. 3b-c) (MMNK1 cholangiocytes; 0.1 nM): 14815.4 and 16483.3
raw viability signal (Source Data Fig. 3b-c) (MMNK1 cholangiocytes; 1 nM): 13973.1 and 15595
raw viability signal (Source Data Fig. 3b-c) (MMNK1 cholangiocytes; 10 nM): 13948.4 and 14647.6
raw viability signal (Source Data Fig. 3b-c) (MMNK1 cholangiocytes; 100 nM): 13576.5 and 14248.6
raw viability signal (Source Data Fig. 3b-c) (MMNK1 cholangiocytes; 1000 nM): 9712.9 and 10190.9
raw viability signal (Source Data Fig. 3b-c) (MMNK1 cholangiocytes; 10000 nM): 13883.8 and 13507.1
GI50 [3]: 24.2 nM and 46.7 nM
Change in tumor volume (% from base line) (LUAD-0087AS2 PDX; 50 mg/kg BID): 87.879% and 58.129% and 44.45% and -5.144% and -25.229%
Change in tumor volume (% from base line) (LUAD-0087AS2 PDX; 100 mg/kg QD): 17.228% and 8.714% and 8.637% and 6.644% and -4.481%
Area Under Curve Mean (LUAD-0087AS2 PDX; 50 mg/kg BID): 607.7
Area Under Curve Mean (LUAD-0087AS2 PDX; 100 mg/kg QD): -475
Tumor volume (LUAD-0087AS2 PDX; 50 mg/kg BID, treatment day 14): 176.99 and 151.71 and 143.39 and 141.55 and 122.52
Tumor volume (LUAD-0087AS2 PDX; 50 mg/kg BID, treatment day 17): 184.47 and 160.85 and 154.42 and 148.22 and 128.59
Tumor volume (LUAD-0087AS2 PDX; 50 mg/kg BID, treatment day 21): 153.78 and 172.55 and 161.49 and 152.64 and 130.54
Tumor volume (LUAD-0087AS2 PDX; 50 mg/kg BID, treatment day 24): 80.7 and 118.01 and 87.03 and 107.44 and 78.99
Tumor volume (LUAD-0087AS2 PDX; 50 mg/kg BID, treatment day 29): 140.89 (2×) and 167.28 and 145.47 and 91.61
Tumor volume (LUAD-0087AS2 PDX; 50 mg/kg BID, treatment day 32): 98.2 and 131.95 and 113.98 and 102.07 and 83.83
Tumor volume (LUAD-0087AS2 PDX; 50 mg/kg BID, treatment day 35): 98.2 and 165.14 and 137.6 and 146.01 and 86.78
Tumor volume (LUAD-0087AS2 PDX; 50 mg/kg BID, treatment day 38): 108.88 and 165.14 and 151.71 and 155.09 and 86.78
Tumor volume (LUAD-0087AS2 PDX; 50 mg/kg BID, treatment day 42): 118.01 and 213.8 and 176.98 and 176.74 and 91.61
Tumor volume (LUAD-0087AS2 PDX; 50 mg/kg BID, treatment day 45): 118.01 and 222.58 and 176.98 and 181.58 and 91.61
Tumor volume (LUAD-0087AS2 PDX; 100 mg/kg QD, treatment day 14): 102.07 and 91.61 and 107.17 and 110.58 and 103.77
Tumor volume (LUAD-0087AS2 PDX; 100 mg/kg QD, treatment day 17): 102.07 and 81.71 and 90.28 and 103.77 (2×)
Tumor volume (LUAD-0087AS2 PDX; 100 mg/kg QD, treatment day 21): 107.17 (2×) and 113.1 and 118.75 and 114.83
Tumor volume (LUAD-0087AS2 PDX; 100 mg/kg QD, treatment day 24): 93.59 and 83.07 and 77.95 and 87.03 and 98.2
Tumor volume (LUAD-0087AS2 PDX; 100 mg/kg QD, treatment day 29): 100.37 and 99.78 and 80.89 and 91.87 and 98.2
Tumor volume (LUAD-0087AS2 PDX; 100 mg/kg QD, treatment day 32): 103.92 and 108.88 and 90.28 and 95.24 and 107.17
Tumor volume (LUAD-0087AS2 PDX; 100 mg/kg QD, treatment day 35): 109.36 and 120.29 and 95.03 and 107.44 and 110.58
Tumor volume (LUAD-0087AS2 PDX; 100 mg/kg QD, treatment day 38): 109.36 and 120.29 and 114.83 and 118.75 and 122.12
Tumor volume (LUAD-0087AS2 PDX; 100 mg/kg QD, treatment day 42): 109.36 and 126.29 and 116.65 and 126.64 and 138.88
Tumor volume (LUAD-0087AS2 PDX; 100 mg/kg QD, treatment day 45): 109.36 and 126.29 and 120.64 and 126.64 and 138.88
GI50 (Ba/F3 cells; BaF3, 72 h, read-out: GI50 value (Mean ± SD), Ba/F3, CellTiter-Glo, 72 h): > 10000 nM
GI50 (Ba/F3 cells; BaF3, Ba/F3 (parental), replicate Sets 1-3): > 10000 nM
GI50 [4]: 14.5 nM
GI50 ([5]; Ba/3-KIF5B-RET-V804L): 21.4 nM
GI50 ([5]; Mus musculus, BaF3, Ba/3-KIF5B-RET-V804L): 25.9 nM
EC50 ([6]; read-out: EC50 for Inhibition of Protein Phosphorylation (95% CI), AKT S473): 1.4 nM
EC50 ([6]; read-out: EC50 for Inhibition of Protein Phosphorylation (95% CI), ERK1/2 T202/Y204): 0.9 nM
EC50 ([6]; read-out: EC50 for Inhibition of Protein Phosphorylation (95% CI), MEK1/2 S217/S221): 1.5 nM
EC50 ([6]; read-out: EC50 for Inhibition of Protein Phosphorylation (95% CI), P70 RSK T421/S424): 4.9 nM
EC50 ([6]; read-out: EC50 for Inhibition of Protein Phosphorylation (95% CI), RET Y905): 1.3 nM
EC50 ([6]; read-out: EC50 for Inhibition of Protein Phosphorylation (95% CI), S6RP S235/S236): 15 nM
GI50 ([7]; Ba/3-KIF5B-RET, replicate sets): 8.96 nM and 6.78 nM
GI50 ([7]; Mus musculus, BaF3, 72 h, read-out: GI50 value (Mean ± SD), Ba/F3-KIF5B::RET, CellTiter-Glo, 72 h): 8.27 ± 1.29 nM
GI50 ([7]; Mus musculus, BaF3, Ba/3-KIF5B-RET, replicate sets): 9.06 nM
kinases inhibited by >50% [8]: one and RET was the only kinase inhibited by >50%
% Inhibiton PDGFRα [9]: 12.4%
% Inhibiton FLT4 [10]: 46.9%
Papp at 3 h, 1 μM [11]: 24 ×10⁻⁶ cm/s
